Test [1] deals with 3T3-L1 adipocytes. In words: cellular triacylglycerol in 3T3-L1 adipocytes. The class given is cell-based. From the text:
(§1) CNA was synthesized from NA (purchased from Nu-Chek Corp., Elysian, Minn.), using the method described in Park, Y. et al., Lipids 34 (1999) 235-241 for producing CLA from linoleic acid; the CNA product synthesized contained 97.3% CNA (c10, t12, 33.4%; t11, c13, 32.9%; t10, t12/t11, t13, 23.4%; other isomers, 7.6%) with the remainder as unreacted NA. CLA was synthesized as described by Park, et al., supra; the CLA product synthesized contained 97.8% CLA (c9, t11/t9, c11, 45.7%; t10, c12, 47.6%; t9, t11/t10, t12, 1.7%; others, 2.8%) with the remainder as unreacted linoleic acid.
(§2) Cultured cells were treated with fatty acid-albumin complexes for 2 days, beginning at day 6 post-differentiation. Data were analyzed as log value with a two-way ANOVA using fatty acid (as treatments) and experiment. If the interaction between treatment and experiment was significant, this interaction was used as the error term. Additional experimental details were as described in Park, et al., supra.
(§3) Treatment values indicate the concentration of test materials (μM); all treatment groups included albumin at 100 μM. Reported values are mean±S.E. (n=8, collected from two independent experiments). […] CNA inhibited LPL activity in cultured 3T3-L1 adipocytes (FIG. 1A). In addition, CNA enhanced glycerol release (FIG. 1B) and reduced intracellular triacylglycerol (FIG. 1C) and glycerol (FIG. 1D) in the same cells. […]

For test [2], the target named is T1, lipoprotein lipase (LPL) (Mus musculus, UniProt P11152).
T1 construct: endogenous in cells; host or cells: 3T3-L1 adipocytes
T1 sequence (P11152 28-474): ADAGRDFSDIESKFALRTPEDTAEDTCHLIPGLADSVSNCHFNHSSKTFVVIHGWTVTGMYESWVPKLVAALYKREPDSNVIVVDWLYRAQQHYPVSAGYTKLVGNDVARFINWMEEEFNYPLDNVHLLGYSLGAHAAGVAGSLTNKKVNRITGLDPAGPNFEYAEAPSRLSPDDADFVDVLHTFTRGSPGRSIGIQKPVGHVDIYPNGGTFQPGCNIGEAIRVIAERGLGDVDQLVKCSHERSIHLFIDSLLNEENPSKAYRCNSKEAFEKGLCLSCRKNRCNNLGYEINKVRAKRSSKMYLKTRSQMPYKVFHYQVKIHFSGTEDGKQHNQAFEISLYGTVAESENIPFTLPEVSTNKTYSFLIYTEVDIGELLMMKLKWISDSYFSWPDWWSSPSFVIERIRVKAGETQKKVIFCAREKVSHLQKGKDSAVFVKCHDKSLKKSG
Nature of the test: heparin-releasable LPL activity in 3T3-L1 adipocytes. Format: cell-based.
Excerpt: as §1, §2, §3

The subject of test [3] is 3T3-L1 adipocytes. Nature of the test: glycerol release in 3T3-L1 adipocytes. The class given is cell-based.
Excerpt: as §1, §2, §3

The test system of test [4] is 3T3-L1 adipocytes. In words: cellular glycerol in 3T3-L1 adipocytes. Format: cell-based.
Excerpt: as §1, §2, §3

A short description of test [5]: Effects of CNA and CLA on body composition (diet feeding). Format: in vivo, mice. The settings on record: 0.3% in diet, 2 weeks; for Body weight gain per animal: female ICR mice. From the text: Female ICR mice (4-week-old) and semi-purified diets (TD94060, 99% basal mix) were purchased from Harlan Sprague Dawley (Madison, Wis.) and Harlan Teklad (Madison, Wis.), respectively. CLA was obtained from Natural Lipids Ltd AS, Hovdebygda, Norway; its composition was 88.7% CLA (c9, t11/t9, c11, 41.9%; t10, c12, 43.5%; t9, t11/10, t12, 1.5%; others, 1.8%) with the remainder as oleic acid, 5.6%; palmitic acid, 1.4%; and linoleic acid, 0.5%. CNA was kindly provided by the US Food and Drug Administration; it was 98.6% CNA (c10, t12, 42.3%; t11, c13, 48.0%; t10, t12/t11, t13, 5.1%; others, 3.2%) with the remainder as unreacted NA. CLA or CNA was added to diets at the expense of corn oil to maintain 5.5% fat. Diet was stored at −20° C. until use. Mice were housed individually in a windowless room with a 12-h light-dark cycle in strict accordance to guidelines established by the Research Animal Resources Center of University of Wisconsin-Madison. Diet and water, available ad libitum, were freshly provided three times per week.
After a 5 day adaptation period, mice were randomly separated into 3 groups and fed control diet, diet supplemented with 0.3% CLA, or diet supplemented with 0.3% CNA for 2 weeks. 0.3% of diet CLA is a sub-optimal dose for CLA's effects on body composition.
Results are mean±S.E. (n=6).

Test [6] addresses T2, ovine cyclooxygenase-2 (Ovis aries, UniProt P79208).
T2 sequence (P79208 17-603): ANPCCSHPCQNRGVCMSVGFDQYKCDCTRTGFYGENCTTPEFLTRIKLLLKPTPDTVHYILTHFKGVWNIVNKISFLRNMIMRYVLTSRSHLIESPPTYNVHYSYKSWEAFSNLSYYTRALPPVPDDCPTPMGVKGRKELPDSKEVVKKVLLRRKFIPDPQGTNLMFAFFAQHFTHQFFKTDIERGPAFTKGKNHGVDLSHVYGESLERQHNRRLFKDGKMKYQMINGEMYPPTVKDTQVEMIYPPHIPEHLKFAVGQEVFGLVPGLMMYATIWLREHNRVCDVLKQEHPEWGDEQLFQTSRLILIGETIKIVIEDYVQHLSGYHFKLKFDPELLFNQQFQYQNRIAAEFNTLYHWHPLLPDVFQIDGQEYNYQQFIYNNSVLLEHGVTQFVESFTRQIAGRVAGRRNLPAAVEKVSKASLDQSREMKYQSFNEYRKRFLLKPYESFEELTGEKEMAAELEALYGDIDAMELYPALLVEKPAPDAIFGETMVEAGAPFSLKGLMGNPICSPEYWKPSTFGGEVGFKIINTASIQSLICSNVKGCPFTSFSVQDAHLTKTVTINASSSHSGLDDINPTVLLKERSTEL
Nature of the test: ovine COX-2 inhibition (total prostanoids by ELISA). Format: biochemical. To be noted: pure ovine COX-2, 5 min co-incubation, 37° C. (FIG. 6). The procedure: (§4) Determination of thromboxane B2 level by ELISA: After the whole blood platelet aggregation, the collagen-stimulated blood was centrifuged for plasma and stored at −80° C. The plasma thromboxane level was determined by ELISA according to the manufacturer's instructions. Inhibitory effects on ovine COX-1 and COX-2: COX-1 or COX-2, heme and reaction buffer were pre-incubated under 37° C. CNA or DMSO (control) was added to the system and co-incubated for 5 minutes. Arachidonic acid was added and the reaction was maintained at 37° C. for 2 minutes. The catalysis reaction was terminated by adding HCL. Total prostanoids were measured by ELISA according to manufacturer's instructions.
For orientation: In an ELISA, binding on a coated surface is turned into a signal by an enzyme label.

The target in test [7] is T3, ovine cyclooxygenase-1 (Ovis aries, UniProt P05979).
T3 sequence (P05979 25-600): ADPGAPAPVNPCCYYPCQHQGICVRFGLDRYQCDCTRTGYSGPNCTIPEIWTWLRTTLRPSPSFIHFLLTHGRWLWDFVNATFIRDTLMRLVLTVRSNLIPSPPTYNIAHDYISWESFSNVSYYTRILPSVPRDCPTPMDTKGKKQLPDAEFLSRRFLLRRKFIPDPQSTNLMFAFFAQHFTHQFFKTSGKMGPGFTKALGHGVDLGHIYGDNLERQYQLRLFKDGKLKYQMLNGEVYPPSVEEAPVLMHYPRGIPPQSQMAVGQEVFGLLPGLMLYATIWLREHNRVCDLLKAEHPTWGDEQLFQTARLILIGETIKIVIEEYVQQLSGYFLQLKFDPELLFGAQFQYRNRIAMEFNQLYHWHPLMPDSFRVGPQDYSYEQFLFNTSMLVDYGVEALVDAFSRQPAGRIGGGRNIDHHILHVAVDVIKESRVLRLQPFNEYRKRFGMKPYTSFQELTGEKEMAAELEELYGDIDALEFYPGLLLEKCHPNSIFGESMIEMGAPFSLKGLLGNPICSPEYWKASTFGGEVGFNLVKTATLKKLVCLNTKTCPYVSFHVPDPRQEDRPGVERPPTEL
In words: ovine COX-1 inhibition (total prostanoids by ELISA). Format: biochemical. To be noted: pure ovine COX-1, 5 min co-incubation, 37° C. (FIG. 5). The procedure: as §4

Test [8] relates to collagen-induced whole blood platelet aggregation. Nature of the test: collagen-induced whole blood platelet aggregation. The class given is cell-based, guinea pigs. The settings on record: guinea pig heparinized whole blood, collagen 4 μg/ml, 2 min preincubation (FIG. 2). The procedure: (§5) Female guinea pigs and diets were purchased from Harlan Teklad (Madison, Wis). Whole Blood Aggregometer, collagen and ADP were purchased from Chrono-log Corp. (Havertown, Pa.). All ELISA kits were purchased from Cayman Chemical (Ann Arbor, Mich.).
(§6) Whole blood platelet aggregation: Guinea Pigs were anesthetized with a combination of ketamine (35 mg/kg) and xylazine (10 mg/kg) by subcutaneous administration. Heparinized blood (20 unit/ml) was obtained by cardiac puncture. Within 5-10 minutes, the blood (1.0 ml) was preheated at 37° C. and then incubated with free fatty acid or DMSO (control) for 2 minutes. Collagen (4 μg/ml) or ADP (10 μM) was next added to the blood to start the platelet aggregation process. Platelet aggregation was measured using an Aggregometer.

Test [9] relates to ADP-induced whole blood platelet aggregation. Nature of the test: ADP-induced whole blood platelet aggregation. The class given is cell-based, guinea pigs. To be noted: guinea pig heparinized whole blood, ADP 10 μM, 2 min preincubation (FIG. 3). The procedure: as §5, §6
Test [10] deals with thromboxane B2. In words: thromboxane B2 level in collagen-stimulated blood by ELISA. Format: cell-based, guinea pigs. The settings on record: collagen-stimulated guinea pig blood, plasma ELISA (FIG. 4). The procedure: as §5, §4
The subject of test [11] is lipopolysaccharide-stimulated macrophages. Nature of the test: PGE2 released from LPS-stimulated macrophages. Format: cell-based. To be noted: macrophages incubated 24 hours, then 100 ng/ml LPS 8 hours; about 3000 pg/ml without CNA (FIG. 7). The procedure:
As a further indication of the ability of CNA to inhibit COX enzymes, FIG. 7 depicts the inhibition of PGE2 released from stimulated macrophages in the presence of varying amounts of CNA. Confluent macrophages were incubated with CNA or linoleic acid (LA; control) at the concentrations shown for 24 hours in 0.5% fetal bovine serum then were stimulated with 100 ng/ml lipopolysaccharide (LPS) for 8 hours. The level of PGE2 in the medium was determined by ELISA assay.

Consider `CCCCC/C=C\C/C=C\CCCCCCCCC(=O)O` [NA, c10, c13 nonadecadienoic acid, reference compound], for which the intracellular triacylglycerol result in [1] (at 50 or 100 μM) is “ineffective”. Also, the LPL activity result in [2] (3T3-L1 adipocytes, at 50 or 100 μM) was “ineffective”. In addition, the glycerol release result in test [3] (at 50 or 100 μM) is recorded as “ineffective”. Besides, the intracellular glycerol result in test [4] (at 50 or 100 μM) is “ineffective”.

Regarding “Conjugated linoleic acid [CLA, reference compound]”, the “Body weight gain per animal” value in [5] was determined as 1.3 g.

For conjugated nonadecadienoic acid [CNA], in [1] (2 days, albumin 100 μM (FIG. 1C)), the intracellular triacylglycerol result was “reduced”. The COX-2 activity entry in [6] was “inhibited”. Moreover, the COX-1 activity entry in test [7] is listed as “inhibited”. In [5], the “Body weight gain per animal” value amounted to 0.2 g. Further, in test [5] (mice, in words), the “amount of whole body water, protein and ash” value is recorded as “enhanced”; the “body fat mass gain” value is “reduced”. The collagen-stimulated platelet aggregation entry in test [8] is “inhibited”. Moreover, the ADP-stimulated platelet aggregation result in test [9] was “inhibited”. In addition, the “thromboxane B2 level” value in test [10] is “reduced”. Further, the LPL activity entry in test [2] (cultured 3T3-L1 adipocytes, fatty acid-albumin complexes 2 days, albumin 100 μM (FIG. 1A)) is recorded as “inhibited”. In addition, in test [3] (2 days, albumin 100 μM (FIG. 1B)), the glycerol release result is recorded as “enhanced”. Moreover, in test [11], the “level of PGE2 in the medium” value is “less than 1000 pg/ml”. The intracellular glycerol entry in [4] (2 days, albumin 100 μM (FIG. 1D)) was “reduced”.

Values taken from US20030008845A1, “Conjugated nonadecadienoic acid compositions” (priority 2001, published 2003).
